Assays:
Test in all cases: Cell viability panel, ATPlite 1Step
Assay type in all cases: cell-based
BxPC-3 = conditions: Homo sapiens, Pancreatic ductal adenocarcinoma, 72 h exposure, read-out: Compound EC50
Description: (§1) Cell viability panel studies. Cells were diluted in the corresponding ATCC recommended medium and dispensed in a 384-well plate, depending on the cell line used, at a density of 200-6400 cells per well. For each used cell line, the optimal cell density was used. Compound was serially diluted and 8 concentration (0.04-32 μM) were added to the cells for 72 h exposure. At t=end, of ATPlite 1Step™ (PerkinElmer) were used to calculate cell viability. Cell lines marked with asterisk were seeded 24 h prior to treatment in 96-well plates at the density range of 5,000-40,000 cells/well, according to duplication rate, in RPMI 1640 medium containing 10% fetal bovine serum and 2 mM L-glutamine. Compounds were diluted from 10 mM DMSO stock and treatment was applied at the range of 0.04-1 μM. Following incubation at 37° C. for 48 hours with increasing concentrations of the compounds, viability was determined with CyQUANT® Direct Assay Kit (Invitrogen). Output intensities were normalized to values after treatment with DMSO alone, and EC50 values were calculated using the absorbance measurements [time zero, (Tz), growth control, (C), plus the test growth at the four drug concentration levels (Ti)] as follows: [(Ti−Tz)/(C−Tz)]×100 for concentrations for which Ti>/=Tz; [(Ti−Tz)/Tz]×100 for concentrations for which Ti−<Tz.

HL-60 = conditions: Homo sapiens, Acute myeloid leukemia, 72 h exposure, read-out: Compound EC50
Description: as §1

FaDu = conditions: Homo sapiens, Hypopharyngeal squamous cell carcinoma, 72 h exposure, read-out: Compound EC50
Description: as §1

MCF7 = conditions: Homo sapiens, Invasive ductal carcinoma, 72 h exposure, read-out: Compound EC50
Description: as §1

LS411N = conditions: Homo sapiens, LS-411N, Cecum adenocarcinoma, 72 h exposure, read-out: Compound EC50
Description: as §1

T24 = conditions: Homo sapiens, T-24, Bladder carcinoma, 72 h exposure, read-out: Compound EC50
Description: as §1

Hs 578T = conditions: Homo sapiens, Invasive ductal carcinoma, 72 h exposure, read-out: Compound EC50
Description: as §1

U-87 MG = conditions: Homo sapiens, Glioblastoma, 72 h exposure, read-out: Compound EC50
Description: as §1

ACHN = conditions: Homo sapiens, Papillary renal cell carcinoma, 72 h exposure, read-out: Compound EC50
Description: as §1

A-427 = conditions: Homo sapiens, Lung adenocarcinoma, 72 h exposure, read-out: Compound EC50
Description: as §1

MG-63 = conditions: Homo sapiens, Osteosarcoma, 72 h exposure, read-out: Compound EC50
Description: as §1

MeWo = conditions: Homo sapiens, Melanoma, 72 h exposure, read-out: Compound EC50
Description: as §1

CAL 27 = conditions: Homo sapiens, Tongue squamous cell carcinoma, 72 h exposure, read-out: Compound EC50
Description: as §1

NCI-H82 = conditions: Homo sapiens, Small cell lung carcinoma, 72 h exposure, read-out: Compound EC50
Description: as §1

DB = conditions: Homo sapiens, Diffuse large B-cell lymphoma, 72 h exposure, read-out: Compound EC50
Description: as §1

U-2 OS = conditions: Homo sapiens, U2OS, Osteosarcoma, 72 h exposure, read-out: Compound EC50
Description: as §1

Hs 746T = conditions: Homo sapiens, Hs746T, Gastric adenocarcinoma, 72 h exposure, read-out: Compound EC50
Description: as §1

RKO = conditions: Homo sapiens, Colon carcinoma, 72 h exposure, read-out: Compound EC50
Description: as §1

ES-2 = conditions: Homo sapiens, Ovarian clear cell adenocarcinoma, 72 h exposure, read-out: Compound EC50
Description: as §1

SNU-C2B = conditions: Homo sapiens, Cecum adenocarcinoma, 72 h exposure, read-out: Compound EC50
Description: as §1

KLE = conditions: Homo sapiens, Endometrial adenocarcinoma, 72 h exposure, read-out: Compound EC50
Description: as §1

SW480 = conditions: Homo sapiens, Colon adenocarcinoma, 72 h exposure, read-out: Compound EC50
Description: as §1

LS 174T = conditions: Homo sapiens, LS174T, Colon adenocarcinoma, 72 h exposure, read-out: Compound EC50
Description: as §1

SU-DHL-1 = conditions: Homo sapiens, Anaplastic large cell lymphoma, 72 h exposure, read-out: Compound EC50
Description: as §1

G-361 = conditions: Homo sapiens, Melanoma, 72 h exposure, read-out: Compound EC50
Description: as §1

HCT 116 = conditions: Homo sapiens, Colon carcinoma, 72 h exposure, read-out: Compound EC50
Description: as §1

SW620 = conditions: Homo sapiens, SW-620, Colon adenocarcinoma, 72 h exposure, read-out: Compound EC50
Description: as §1

Daoy = conditions: Homo sapiens, Medulloblastoma, 72 h exposure, read-out: Compound EC50
Description: as §1

HCT-15 = conditions: Homo sapiens, Colon adenocarcinoma, 72 h exposure, read-out: Compound EC50
Description: as §1

5637 = conditions: Bladder carcinoma, 72 h exposure, read-out: Compound EC50
Description: as §1

CN(C)CCCS(=O)(=O)N1C/C(=C\c2ccc(C#N)cc2)C(=O)/C(=C/c2ccc(C#N)cc2)C1 [Compound AA]
EC50 (BxPC-3): < 300 nM | EC50 (HL-60): < 300 nM | EC50 (FaDu): < 300 nM | EC50 (MCF7): ≥ 1000 nM | EC50 (LS411N): 300 to 1000 nM | EC50 (T24): < 300 nM | EC50 (Hs 578T): < 300 nM | EC50 (U-87 MG): < 300 nM | EC50 (ACHN): 300 to 1000 nM | EC50 (A-427): < 300 nM | EC50 (MG-63): < 300 nM | EC50 (MeWo): 300 to 1000 nM | EC50 (CAL 27): < 300 nM | EC50 (NCI-H82): < 300 nM | EC50 (DB): < 300 nM | EC50 (U-2 OS): < 300 nM | EC50 (Hs 746T): < 300 nM | EC50 (RKO): < 300 nM | EC50 (ES-2): < 300 nM | EC50 (SNU-C2B): 300 to 1000 nM | EC50 (KLE): ≥ 1000 nM | EC50 (SW480): < 300 nM | EC50 (LS 174T): < 300 nM | EC50 (SU-DHL-1): < 300 nM | EC50 (G-361): < 300 nM | EC50 (HCT 116): < 300 nM | EC50 (SW620): < 300 nM | EC50 (Daoy): < 300 nM | EC50 (HCT-15): 300 to 1000 nM | EC50 5637: < 300 nM

Reference: US20200399262A1, “COMPOUNDS FOR INHIBITING PROTEIN DEGRADATION AND METHODS OF USE THEREOF IN THE TREATMENT OF CANCER” (PI Therapeutics Ltd, priority 2018, published 2020)
